# Where two headings read alike, the source gives them in different places.
# B1: CthIspH–RPS1 (Acetivibrio thermocellus ATCC 27405) (protein)
# chain: MEIIVAKSAGFCFGVSNAVKTVNNLLENQKEPIYTYGPIIHNAQVVDLFTSKGVKKIDDIDEAEPNGHIVIRAHGVTPDIYKKISDKGLILEDATCPYVKKIHNLVKEKSEEGYKIIIVGDRNHPEVIGINGWCNNQAYIVDSVDDVEKFPTSDEKVCVVAQTTITNEKWLEVNTALKKKFKNILKFDTICSATSRRQNEAEEIAKNVDMMIIIGGKNSSNTQKLYDICKKHCNLTYKIETSGDLPPVDIKKIKKVGISAGASTPDWVIEEVIKKMSELNKQGMVDILENDGEIDFANAFENSFVRIHAGDTVKGKIIGFNSNEVFVDLGYKADGIIPLEEYTDDPNFNIEKEVKIGEEVEVLVEMVNDGEGNVRLSKRKVDAIKSWDDIVKAYENKTPVNAYVVEVVKGGVIASYKGVRIFVPASQVSDRYVKDLNEFLKRSITVRILELNEKRRKVVGSARVIIEEEKEALANRTWNSMEVGKVFKGTVKSLTDFGAFVDIGGVDGLIHISELSWTRVKHPSEVLKVGDEVEVTVLEFDKEKKKVSLGYRKMEDNPWYKIEEKYKVGDVVKVTVLRFAPFGAFVELEKGVDGLVHISQISSKRLAKVEDALEIGMKVDAKIIEVDGENKKISLSIKEVMPIDPPSSKSESKAKDGSEAKETSANTEEEAEPTEHREDMNVTVEDLVSKTTQS
# What was measured:
# CthIspH–RPS1 [1] = biological target: T1, CthIspH–RPS1 (Acetivibrio thermocellus (Clostridium thermocellum), UniProt A3DDC0); test: CthIspH–RPS1 inhibition assay (methyl viologen method); type: biochemical; as to IC50 against CthIspH–RPS1: 40 nM enzyme, 50 µM HMBPP, 40 µM dithionite
# Procedure: (§1) The CthIspH kinetics and inhibition assays were performed by using the methyl viologen method described previously.[27] […] The reactions were monitored at 606 nm. K m and k cat were fitted by using a Michaelis–Menten relation in Origin 9.1. The extinction coefficient for the methyl viologen radical cation at 606 nm was taken to be 13 700 M^–1 cm^–1.[28]
# AaIspH = tested on: AaIspH; parameters: method as in PMID 24481599, PMID 20426416; conditions: Fig. 5a bottom value; read-out: IC50 against AaIspH; cited from earlier work
# CthIspH–RPS1 [2] = biological target: T1, CthIspH–RPS1; test: CthIspH–RPS1 Michaelis–Menten kinetics (methyl viologen assay); type: biochemical; conditions: substrate HMBPP, room temperature
# Procedure: as §1
# Substrate consumption and product formation were also confirmed by LC-MS (Fig. S3 ^†) and NMR analysis.
# [3] = tested on: IspH from the thermophile Aquifex aeolicus; parameters: method as in PMID 24481599; conditions: A. aeolicus IspH; cited from earlier work
# [4] = substrate: C/C(=C\COP(=O)(O)OP(=O)(O)O)CO; test: purified protein, by the assay type; conditions: other: substrate HMBPP, room temperature
# [5] = read-out: IC50 against CthIspH–RPS1
Molecule,IC50 (CthIspH–RPS1 [1]; [5]) [µM],also measured
C#CCOP(=O)(O)OP(=O)(O)O [Compound 4],8.8,–
C#CCCOP(=O)(O)OP(=O)(O)O [Compound 5],3.3,IC50 (AaIspH): 0.45 µM
C#CCCCOP(=O)(O)OP(=O)(O)O [Compound 6],47,–
O=P(O)(O)OP(=O)(O)OCc1cccnc1 [Compound 7],150,–
O=P(O)(O)OP(=O)(O)OCCc1cccnc1 [Compound 8],240,–
O=P(O)(O)OP(=O)(O)OCCCc1cccnc1 [Compound 9],490,–
O=P(O)(O)OP(=O)(O)OCc1ccncc1 [Compound 10],120,–
O=P(O)(O)OP(=O)(O)OCC#CCO [Compound 11],92,–
CC#CCOP(=O)(O)OP(=O)(O)O [Compound 12],760,–
"O=P(O)(O)OP(=O)(O)SCC#CCO [Compound 13, 4-Hydroxybut-2-ynyl-S-thiolodiphosphate]",–,IC50 (CthIspH–RPS1 [1]): 3.8 µM; activity against CthIspH–RPS1 (in words) (CthIspH–RPS1 [1]; inhibition of catalytic activity): very active
"C/C(=C\COP(=O)(O)OP(=O)(O)O)CO [HMBPP, (E)-1-hydroxy-2-methyl-but-2-enyl 4-diphosphate]",–,kcat (CthIspH–RPS1 [2]): 56 min^–1; Km [3]: 7 µM; kcat [3]: 1.0 s^–1
B1,–,Km [4]: 15 µM
